Broadly, the viability is a read-out of living cells in per cent, often relative to untreated cells. Broadly, the IC50 is the concentration needed to halve the response being measured.

Series [1] is described as follows: Viability of human neutrophils (WST-1 cytotoxicity test). The following applies: human neutrophils 1 × 10^7 cells/ml. Type of series: cell-based. As for the experimental part:
A cytotoxicity test was performed to determine the adverse effect of tested compounds on humans using neutrophil cells.
The absorbance is the mean of five experimental replicates.
The % viability of neutrophils was measured by the following formula: Percentage viability: […].
(Tetrazolium assays rely on reduction of a dye to a coloured formazan, in cell work by metabolically active cells.)

Series [2] has as its target T1, acetylcholinesterase (AChE) (Electrophorus electricus, UniProt O42275).
T1 construct: purchased Sigma Aldrich C3389-2KU
The series is described as follows: biochemical. On the set-up: V max / V maxapp: unit not given here. The following applies: for K m app / V maxapp: in the presence of compound; for Ki: read-out: K i ± SEM; for K m: substrate ACh. Here is the method: Enzyme-substrate (ES) is the complex of AChE and acetylcholine, while P represents the product formed after the reaction’s completion. Dissociation constant values were calculated through Dixon plots, their secondary replots, and the Lineweaver-Burk plot ([Khan et al., 2021]).
The values of K m, K i, and V max were determined from Dixon and Lineweaver-Burk plots using no linear regression equation.
GraFit software ([Khan et al., 2021]) was utilized for plotting graphs. The values of the correlation coefficients, slopes, intercepts, and their standard errors were determined by the linear regression equation using the same program.
During kinetic studies, the reaction rate was measured and the effect of different concentrations of a substrate on the enzyme was investigated. The kinetic study of enzymes helped to determine the catalytic mechanism of enzymes. […] The rate of reaction [V] was plotted against various substrate concentrations [S] at constant enzyme concentration. Initially, the rate of reaction [V] increases as substrate concentration increases, and at higher [S], the enzyme becomes saturated, and the rate of reaction reaches V max, which is referred to as the maximum rate of reaction.
The dissociation constant K i values were found using three different methods. Primarily, from the Lineweaver-Burk plot, which is the reciprocal rate of reaction (1/V) versus reciprocal of substrate concentration (1/S), helps to determine the effect of inhibitor on the values of K m and V max. Secondly, the Dixon plot is the plot between the reciprocal of initial velocities (1/V) versus different concentrations of the compound. Finally, from secondary replot, the slopes of each line versus various concentrations of all compounds. Kinetic studies were carried out to determine the inhibition type, which helps to specify the mechanism of action of enzyme inhibition and the inhibitor binding moieties.

Series [3] deals with isolated rabbit jejunum, K+-induced contractions. Put plainly: Calcium antagonistic activity: relaxation of high K+ (80 mM) contracted isolated rabbit jejunum. The following applies: mean ± SEM, n = 3. As for the experimental part: (§1) The spasmolytic activity of the inhibitors was evaluated using isolated contracting rabbit jejunum ([Rahman et al., 2019]). Rabbits used in the current study were provided by Aga Khan Medical University, Karachi, Pakistan, weighing between 1.5 and 2.0 kg. The standard operating protocol has already been defined ([Choudhary et al., 2005]).
(§2) Calcium antagonistic activity was also performed and confirmed the relaxation of 80 mM K^+ produced contraction.
Schiff bases were also evaluated at high K^+ (80 mM) contracted isolated rabbit jejunum preparations for their spasmolytic effect, which was relaxed by all compounds (Table 3). […] Schiff bases represent a class of compounds showing a wide range of bioactivities, such as antimicrobial and anticancer activities. Schiff base compounds are the products of primary amines and condensation of carbonyl compounds, which are extensively investigated owing to their wide range of biomedical applications ([Sztanke et al., 2013]). […] The antispasmodic and Ca^+2 antagonist activity of Schiff base compounds was first reported and could be linked to the azomethine bond.

Series [4] addresses T1, acetylcholinesterase (AChE). The series is described as follows: biochemical. The following applies: triplicate. Here is the method: AChE inhibitory activity was evaluated as described previously with few modifications using a microtiter plate reader (Molecular Device, CA, United States) ([Hasan et al., 2005]). Initially, 100 mM of sodium phosphate buffer (140 µl) pH 8, 0.25 mM DTNB (10 µl), 0.5 mM of synthetic compounds dissolved in 20 µl of ethanol and AChE (20 µl) were mixed and incubated for 15–20 min at room temperature in a microtiter plate. Finally, 10 µl of substrate ACh (0.4 mM) was added and incubated at room temperature for 4–6 min. The reaction started after the addition of ACh was hydrolyzed by AChE in the presence of DTNB; a yellow-colored 5-thio-2-nitrobenzoate anion was formed, which indicates the reaction completion and was read at a wavelength of 412 nm. All experiments were performed in triplicate and were analyzed using the SoftMax Pro6.3 program (Molecular Device, CA, United States).
Percentage inhibition was calculated by % inhibition = (O.D control-O.D test well) / O.D control)×100.
IC50 was determined at various concentrations, and EZ-Fit EK was employed to calculate the IC50 values of the test compounds (Perrella Scientific Inc., Amherst, MA, United States).
In the current study, electric eel AChE was used in the laboratory to perform an AChE inhibitory assay, but for computational analysis, we used hAChE (4EY6). Therefore, homology modeling was performed to check the similarity between the electric eel and hAChE.

For series [5], the system named is isolated rabbit jejunum, spontaneous contractions. Put plainly: Spasmolytic activity on spontaneously contracting isolated rabbit jejunum. The following applies: mean ± SEM, n = 3. Here is the method: as §1, §2

T1 sequence (O42275 24-633): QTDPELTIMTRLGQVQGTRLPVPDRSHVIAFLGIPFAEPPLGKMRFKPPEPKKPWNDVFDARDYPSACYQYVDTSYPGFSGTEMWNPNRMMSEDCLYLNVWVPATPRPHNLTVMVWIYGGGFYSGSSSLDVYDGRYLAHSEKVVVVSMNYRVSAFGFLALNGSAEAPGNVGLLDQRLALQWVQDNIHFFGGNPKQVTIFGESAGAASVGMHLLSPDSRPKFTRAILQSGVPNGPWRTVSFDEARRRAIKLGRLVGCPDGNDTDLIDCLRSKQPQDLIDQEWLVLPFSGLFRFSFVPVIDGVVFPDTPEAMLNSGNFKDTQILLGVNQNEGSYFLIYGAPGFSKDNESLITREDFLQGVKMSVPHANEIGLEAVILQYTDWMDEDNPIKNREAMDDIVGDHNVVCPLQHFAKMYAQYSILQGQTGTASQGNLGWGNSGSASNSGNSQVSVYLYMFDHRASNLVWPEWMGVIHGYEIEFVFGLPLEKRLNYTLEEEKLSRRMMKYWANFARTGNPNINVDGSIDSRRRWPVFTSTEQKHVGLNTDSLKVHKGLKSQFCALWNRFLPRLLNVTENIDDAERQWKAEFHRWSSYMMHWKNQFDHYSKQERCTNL

The compound `COc1ccc2c3c1O[C@H]1C[C@@H](O)C=C[C@@]31CCN(C)C2` [Galanthamine, reference compound] registered a viability at 30 min, 696.005 µM in series [1] (Conc. 696.005 µM) of 96 ± 2%.
For `CCSc1nc2ccccc2n1CC(=O)N/N=C/c1ccc(Cl)cc1Cl` [Compound 10], in series [2], the Type of inhibition entry is “Non-competitive”, the V max is 5.0, the K m app was determined as 120 µM and the V maxapp turned out to be 2.1. Besides, in series [2], the Ki was 17 ± 1.3 µM and the K m is 120 µM. Besides, in series [1] (neutrophils isolated from human whole blood, Conc. 491.014 µM), the viability at 30 min, 491.014 µM worked out at 90.1 ± 2.3%. Moreover, the “Effective Dose (ED50), spasmolytic effect, High K+” value (“Effective Dose (ED50) … High K+” for short) in series [3] is given as 1,620.347 ± 0.04 µM. The compound further had an IC50 in series [4] of 51.23 ± 0.2 µM.
Consider `CCSc1nc2ccccc2n1CC(=O)N/N=C\c1ccc(OC)cc1OC` [Compound 11], for which the “Effective Dose (ED50), spasmolytic effect, Spontaneous” value (from here on “Effective Dose (ED50) … Spontaneous”) in series [5] turned out to be 326.239 ± 0.01 µM. Further, in series [2], the Type of inhibition result was “Non-competitive”, the V max amounted to 5.0, the K m app was found to be 120 µM and the V maxapp was 2.6. Besides, in series [2], the Ki came to 14 ± 1.6 µM and the K m was determined as 120 µM. This compound also had a viability at 30 min, 501.907 µM in series [1] (neutrophils isolated from human whole blood, Conc. 501.907 µM) of 98 ± 1%. For the same compound, the “Effective Dose (ED50) … High K+” value in series [3] is on record as 727.765 ± 0.09 µM. In addition, the IC50 in series [4] was 37.64 ± 0.2 µM.
For the compound `CCSc1nc2ccccc2n1CC(=O)N/N=C/c1c2ccccc2cc2ccccc12` [Compound 14], the “Effective Dose (ED50) … Spontaneous” value in series [5] worked out at 592.876 ± 0.12 µM. In series [2], the Type of inhibition result is listed as “Non-competitive”, the K m app came to 120 µM and the K m worked out at 120 µM. Further, in series [1] (neutrophils isolated from human whole blood, Conc. 456.058 µM), the viability at 30 min, 456.058 µM is 66.6 ± 4%. Besides, in series [3], the “Effective Dose (ED50) … High K+” value was 980.526 ± 0.05 µM. The compound also yielded a half-inhibitory concentration (IC50) in series [4] of 51.23 ± 0.2 µM.
On to `CCSc1nc2ccccc2n1CC(=O)N/N=C/c1cccc(O)c1O` [Compound 13], for which the “Effective Dose (ED50) … Spontaneous” value in series [5] worked out at 458.926 ± 0.01 µM. Moreover, in series [2], the Type of inhibition entry was “Non-competitive”, the V max is 5.0, the K m app worked out at 120 µM and the V maxapp was 2.3. Besides, in series [2], the Ki turned out to be 19 ± 1.7 µM and the K m worked out at 120 µM. For the same compound, the viability at 30 min, 539.913 µM in series [1] (neutrophils isolated from human whole blood, Conc. 539.913 µM) amounted to 77.22 ± 0.5%. The “Effective Dose (ED50) … High K+” value in series [3] is reported as 836.865 ± 0.05 µM. Further, in series [4], half-maximal inhibition (IC50) was put at 50.58 ± 0.3 µM.

For the origin of these results see paper PMC9428891 (Frontiers in Pharmacology, 2022).
